System: human pluripotent stem cells (hPSCs)
Test: Mesendoderm induction: BRACHYURY immunofluorescence in hPSCs
Assay type: cell-based
Experimental: For differentiation experiments, hESCs or hiPSCs can be grown on Geltrex, washed once with PBS and dissociated into single cells with Accutase ([…] Technologies). Cells are plated at a density of 4×10^4 cells/cm^2 onto Geltrex-coated plates in mTeSR1 medium supplemented with the ROCK inhibitor Y27632 10 μM (Stemgent). Cells are fed daily with mTeSR1 without Y27632 for 2-3 days until they reached 50% confluency. Mesendoderm differentiation-the media is changed to Advanced RPMI (A-RPMI, Invitrogen) supplemented with 1×L-glutamax and 1× penicillin/streptomycin and either CHIR99021 (CHIR, Stemgent), human Wnt3a (R&D systems), and/or human activin A (R&D systems) at the doses described. Definitive endoderm differentiation-cells are treated with […] for 24 hours, then […]+100 ng/mL of activin A for 2-3 days. Hepatic differentiation-cells at the definitive endoderm stage are treated with […]27 supplement (Invitrogen)+20 ng/mL BMP-4 (R&D systems)+10 ng/mL FGF2 (Invitrogen) for 5 days, then […]27+10 ng/mL HGF for 5 days, then HCM Hepatocyte Culture Medium (Lonza) supplemented with 20 ng/mL Oncostatin M and 10 ng/mL HGF (Peprotech) for 5 days. Pancreatic differentiation-cells at the definitive endoderm stage are treated with DMEM/F12+2% FBS (Hyclone)+50 ng/mL FGF7 (R&D systems) for 2 days, then high-glucose DMEM (Mediatech)+1% B27+2 μM retinoic acid (Sigma)+0.25 μM KAAD cyclopamine (EMD Millipore)+100 ng/mL recombinant human Noggin (R&D systems) for 4 days, then high-glucose DMEM+1% B27+100 ng/mL Noggin+300 nM indolactam V (Stemgent)+1 μM ALK5 inhibitor II (Axxora) for 4 days. Anterior foregut endoderm differentiation-cells at the definitive endoderm stage are treated with DMEM/F12+1×L-glu+1×B27+200 ng/mL Noggin+10 μM SB431542 (Stemgent) for 3 days. […] Immunofluorescence is visualized using an inverted fluorescence microscope (Nikon Eclipse Ti, Tokyo, Japan). Quantification is performed by counting a minimum of five random fields at 10× magnification. […]

Compound: Cc1c[nH]c(-c2cnc(NCCNc3ccc(C#N)cn3)nc2-c2ccc(Cl)cc2Cl)n1 [CHIR99021]
- cells expressing BRACHY (5 μM, 24 hours): 98.7±1.3%
- efficiency of BRACHYURY+MIXL1+ mesendoderm differentiation (summary statement): ~100%

— US20160272937A1, “METHODS OF GENERATING INTERMEDIATE MESODERM CELLS FROM HUMAN PLURIPOTENT STEM CELLS” (THE BRIGHAM AND WOMEN'S HOSPITAL, INC., priority 2013, published 2016)
